Paper PMC10920890, “Biosensor and machine learning-aided engineering of an amaryllidaceae enzyme” (Nature Communications, 2024)

Biological target: RamR (Salmonella enterica, UniProt Q8ZR43, K63T/L66M/C134D/S137G)
Details: variant 4NB2.1 (4NB2); LB medium, 37 °C; whole-cell biosensor

Sequence of RamR (Q8ZR43 whole entry K63T/L66M/C134D/S137G): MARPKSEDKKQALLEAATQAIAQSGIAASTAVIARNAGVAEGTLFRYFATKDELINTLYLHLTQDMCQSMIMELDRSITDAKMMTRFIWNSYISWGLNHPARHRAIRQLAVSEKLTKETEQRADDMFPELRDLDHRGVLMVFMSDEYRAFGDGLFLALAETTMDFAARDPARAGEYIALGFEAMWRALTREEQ

COc1ccc(CNCCc2ccc(O)cc2)cc1O [4′-O-methylnorbelladine]
EC50: 20 µM
